{
  "source": "patent US20220054445A1",
  "about": "“THERAPEUTIC METHODS AND COMPOSITIONS FOR TREATING CANCER USING 6,8-BIS-BENZYLTHIO-OCTANOIC ACID AND AN AUTOPHAGY INHIBITOR” (Rafael Pharmaceuticals, Inc., priority 2018, published 2022)",
  "key": {"[1]": {"tested_on": "HS-MM cells", "test": "DALGreen autophagy detection in HS-MM cells", "assay_type": "cell-based", "conditions": "16 hours", "description": "HS-MM cells (Sonobe H. et al., J. Pathol., 1993, 169, 317-322; Sonobe H. et al., J. Pathol., 1999, 187, 594-597) were cultured with Dulbecco's modified Eagle's medium (DMEM; Gibco Life Technologies, Grand Island, N.Y., USA) containing 10% heat-inactivated fetal bovine serum (FBS). Cells were incubated with […] autophagy detection agent (Dojindo Co., Kumamoto, Japan) according to the manufacturer's protocol (https://www.dojindo.com/TechnicalManual/Manual_[…].pdf). The […]-treated cells were then incubated with vehicle (DMEM+10% heat-inactivated FBS containing the same amount of DMSO and distilled water present in the corresponding CPI-613 and chloroquine experiments), CPI-613 (added […] of a 5 mg/mL solution of CPI-613 in DMSO per mL of medium to provide a 1 μg/mL concentration of CPI-613 in the medium), or the combination of CPI-613 (1 μg/mL as above) and chloroquine (added 2 μL of a 5 mg/mL solution of chloroquine in distilled water per mL of medium to provide a 10 μg/mL concentration of chloroquine in the medium) at 37° C. under 5% CO2 for 16 hours, and then visualized under a confocal fluorescence microscope (Leica TCS SP8; Leica Corporation, Germany) and analyzed with a Guava Easy-Cyte cell analyzer ([…], Calif., USA)."}, "[2]": {"tested_on": "BxPC-3 pancreatic cancer xenografts", "test": "Human pancreatic cancer xenograft, oral dosing", "assay_type": "in vivo, CD-1 nude mice", "conditions": "oral dose of 100 mg/week for 4 weeks", "description": "An acclimation period of 7 days was allowed between the arrival of the animal at the study site before tumor inoculation and experimentation. Mice were inoculated subcutaneously (SC) in the right flank with 2×10^6 human H460 NSCLC or BxPC3 pancreatic cancer cells that were suspended in 0.1 mL of Dulbeco's Phosphate Buffered Salt (PBS) solution using a 1 cc syringe with a 27-5/8 gauge needle. Tumor dimensions (length and width) were measured daily before, during and after treatment (using Vernier calipers) and the tumor volume was calculated using the prolate ellipsoid formula: (length×width^2)/2. Treatment with test or control articles began 8 days post tumor cell implantation when the tumor was approximately 300 mm^3.\nA similar study was conducted in CD-1 nude mice (n=9) inoculated with 2×10^6 BxPC-3 cells. The study was initiated when tumors reached an average size of 150 mm^3 (day 0) and CPI-613 was administered at an oral dose of 100 mg/week for 4 weeks. A comparator arm (n=9) was conducted with IP treatment at a weekly dose of 25 mg/kg."}, "[3]": {"test": "Animal studies of IV administration (toxicity)", "assay_type": "in vivo", "description": "CPI-613 must be administered IV, via an IV catheter that is free flowing and free of air in the dead space of the IV catheter, to minimize vascular irritation, inflammation and acute toxicity of CPI-613. […] To avoid local reactions at and around the site of administration, CPI-613 must be administered via a central venous catheter.\nCPI-613 must not be administered as a bolus, but by infusion, at a rate of ˜0.5 mL/min, via a central venous catheter with D5W running at a rate of about 125-150 mL/hr. This is to minimize potential acute toxicity of CPI-613, according to animal studies."}, "[4]": {"tested_on": "human H460 NSCLC xenografts", "test": "Human non-small cell lung cancer xenograft, oral dosing", "assay_type": "in vivo, CD1-Nu/Nu female mice", "conditions": "oral 100 mg/kg on day 8, 15, 22, 29 post implantation", "description": "Human H460 NSCLC cells were obtained from American Type Cell Culture (ATCC) (catalog no. HTB-177, Manassas, Va.). These cells tested negative for viral contamination using the Mouse Antibody Production (MAP) test, performed by Charles River Labs Molecular Division, upon the receipt of the tumor cells from ATCC. The tumor cells were maintained at 37° C. in a humidified 5% CO2 atmosphere in T225 tissue culture flasks containing 50 mL of Roswell Park Memorial Institute (RPMI)-1640 solution with 10% Fetal Bovine Serum (FBS) and 2 mM L-glutamine. Cells were split at a ratio of 1:10 every 2-3 days by trypsinization and resuspended in fresh medium in a new flask. Cells were harvested for experiments in the same way at 70-90% confluency.\nCD1-Nu/Nu female mice, ˜4-6 weeks old were obtained from Charles River Laboratories. Mice were housed 5 to a cage in a micro-isolator room in the Department of Animal Laboratory Research of New York State University (SUNY) at Stony Brook. Light-dark cycles were 12 h each daily, with light from 7 a.m. to 7 p.m. […]\nAn acclimation period of 7 days was allowed between the arrival of the animal at the study site before tumor inoculation and experimentation. […] Tumor dimensions (length and width) were measured daily before, during and after treatment (using Vernier calipers) and the tumor volume was calculated using the prolate ellipsoid formula: (length×width^2)/2. […]"}, "[5]": {"conditions": "Pardee et al., Clin Cancer Res. 2014; cited from earlier work"}, "[6]": {"tested_on": "K562 and MFL2 AML cells", "test": "LC3-II blot for induction of autophagy in AML cells", "assay_type": "cell-based", "conditions": "CPI-613 200 μM, 4 hours", "excerpt": "Complete media (“Full”) and Hank's Balanced Salt Solution medium (HBSS) were used as negative and positive controls of autophagy, respectively."}, "[7]": {"test": "Plasma pharmacokinetics and oral bioavailability of formulations", "design": "species or system BALB/c nude mice", "conditions": "mouse, in vivo", "description": "Six groups of 16 BALB/c nude mice (8 males and 8 females) per group were administered 6,8-bis-benzylthio-octanoic acid in six different ways: (1) 5 μL/g IV injection (tail vein) of the triethanolamine/dextrose aqueous solution of Example 18 (25 mg/kg; 5 mL/kg; Ex. 18A); (2) 5 μL/g IP injection of the triethanolamine/dextrose aqueous solution of Example 18 (25 mg/kg; 5 mL/kg; 18A); (3) 5 μL/g oral administration of the Eudragit L100 SDD suspension of Example 18 (100 mg/kg; 5 mL/kg; 18B); (4) 5 μL/g oral administration of the HPMCAS-M SDD suspension of Example 18 (100 mg/kg; 5 mL/kg; 18C); (5) 5 μL/g oral administration of the 20 mg/mL 6,8-bis-benzylthio-octanoic acid suspension of Example 18 (100 mg/kg; 5 mL/kg; 18D); or (6) 10 μL/g oral administration of the 10 mg/mL SOLUTOL solution of Example 18 (100 mg/kg; 10 mL/kg; 18E). In each experiment, about 80 μL of blood was collected from one subgroup of 4 male and 4 female mice at 0.083, 1, 4, and 24 hours after dosing, and from the other subgroup of 4 male and 4 female mice at 0.5, 2, and 8 hours. Plasma from the collected blood samples was analyzed by LC-MS/MS for the presence of 6,8-bis-benzylthio-octanoic acid."}, "[8]": {"tested_on": "HS-MM cells", "test": "Annexin V / propidium iodide cell death staining in HS-MM cells", "assay_type": "cell-based", "conditions": "necrostatin-1 5, 10 or 50 μM with CPI-613 1 μg/mL + chloroquine 10 μg/mL", "description": "HS-MM cells (Sonobe H. et al., J. Pathol., 1993, 169, 317-322; Sonobe H. et al., J. Pathol., 1999, 187, 594-597) were cultured with Dulbecco's modified Eagle's medium (DMEM; Gibco Life Technologies, Grand Island, N.Y., USA) containing 10% heat-inactivated fetal bovine serum (FBS). Cells were incubated with vehicle (DMEM+10% heat-inactivated FBS containing the same amount of DMSO and distilled water present in the corresponding CPI-613, chloroquine, and necrostatin-1 experiments), chloroquine (10 μg/mL), CPI-613 (1 μg/mL or 10 μg/mL), the combination of chloroquine (10 μg/mL) and CPI-613 (100 ng/mL, 1 μg/mL, or 10 μg/mL), or the combination of chloroquine (10 μg/mL) and CPI-613 (1 μg/mL) in the presence of necrostatin-1 (5 μM, 10 μM, or 50 μM), and then double stained with a fluorescein isothiocyante (FITC)-conjugated Annexin V and propidium iodide (PI) (PromoCell GMbH, Heidelberg, Germany) followed by analysis with a confocal fluorescence microscope and cell analyzer. The chloroquine and CPI-613 were added to the media from 5 mg/mL stock solutions in distilled water or DMSO, respectively, as in Example 11. The necrostatin-1 was added to the media from a 5 mg/mL stock solution in DMSO."}},
  "data": [
    {"compound": "O=C(O)CCCCC(CCSCc1ccccc1)SCc1ccccc1", "note": "(stereo not shown) [6,8-bis-benzylthio-octanoic acid]", "values": [
      {"measurement": "induction of autophagy (DALGreen fluorescence)", "setting": "[1]; CPI-613 1 μg/mL", "result": "induces autophagy in HS-MM cells"},
      {"measurement": "tumor growth effect", "setting": "[2]", "result": "especially pronounced"},
      {"measurement": "acute toxicity with extra air in dead space of IV catheter", "setting": "[3]; accidental co-administration of air during IV administration, animal studies", "result": "potential to induce acute toxicity"},
      {"measurement": "local reaction on leakage into the perivascular space", "setting": "[3]; in vivo, iv", "result": "can induce significant local inflammation"},
      {"measurement": "tumor growth versus 5% dextrose or untreated", "setting": "[4]", "result": "grew much more slowly"},
      {"measurement": "half-life after IV dosing", "setting": "[5]", "result": "1 to 2", "unit": "h"},
      {"measurement": "induction of autophagy (LC3-II blot)", "setting": "[6]", "result": "induces autophagy in AML cells"},
      {"measurement": "oral bioavailability (conclusion in words)", "setting": "[7]", "result": "orally bioavailable"}
    ]},
    {"compound": "CN1C(=O)C(Cc2c[nH]c3ccccc23)NC1=S", "note": "(stereo not shown) [necrostatin-1]", "values": [
      {"measurement": "effect on cell death induced by CPI-613 plus chloroquine", "setting": "[8]", "result": "did not affect cell death"}
    ]},
    {"compound": "CCN(CC)CCCC(C)Nc1ccnc2cc(Cl)ccc12", "note": "(stereo not shown) [chloroquine, reference compound]", "values": [
      {"measurement": "blocking of CPI-613 autophagy induction", "setting": "[1]; chloroquine 10 μg/mL with CPI-613 1 μg/mL", "result": "autophagy induction can be blocked"}
    ]}
  ]
}
